Tests used:
SCF (KITLG) gene [1] = assay: SCF (KITLG) gene expression in cultured human epidermal keratinocytes, quantitative PCR; type: cell-based; conditions: cultured epidermal cells
Description: (§1) Human epidermal cells derived from neonatal foreskin were purchased from Kurabo Industries Ltd., and were precultured in a serum-free basal growth medium (EpiLife, product of Kurabo Industries Ltd.) in an atmosphere of 5% (v/v) CO2 at 37° C. The thus-precultured epidermal cells were inoculated into a 6-well culture plate (product of Falcon) (1.0×10^5 cells/well). Twenty-four hours thereafter, the cells were cultured in a growth medium without including BPE (bovine pituitary gland extract) and hEGF (human epidermal growth factor), and 24 hours thereafter, 5-fluorouracil (5-FU, product of Calbiochem), which is a conventionally known p53 activator, was added at a concentration of 1 or 10 μg/mL. After 48-hour treatment, total RNA was extracted by use of TRIzol® Reagent (product of Invitrogen Corporation). Specifically, each well of the culture plate was washed with PBS, and TRIzol® Reagent (1 mL) was added to the well. […]
(§2) The thus-extracted total RNA was subjected to reverse transcription to synthesize cDNA, and the thus-synthesized cDNA was employed for gene expression analysis through quantitative PCR using TaqMan® probe. In the present Example, specifically, expression levels of SCF (KITLG) gene (Assay ID: Hs00241497_m1) and endothelin-1 gene (Assay ID: Hs00174961_m1) were measured. […]

HCT116 cells = conditions: HCT116 human colon cancer cell line; Cell, 124, 207-219, 2006; cited from earlier work
endothelin-1 gene [2] = assay: endothelin-1 gene expression in cultured human epidermal keratinocytes, quantitative PCR; type: cell-based; conditions: cultured epidermal cells
Description: as §1, §2

tyrosinase gene = tyrosinase gene expression in organ-cultured skin tissue of pigmentatio petaloides actinica, RT-PCR; type: cell-based, human; conditions: 10 μM PFT, 72 hours organ culture, epidermis, relative to control spot sample, FIG. 6
From the text: (§3) Through a contract laboratory of Stephens & Associates (Carrollton, Tex.), subjects having spots were recruited. A dermatologist, contractor of the laboratory, collected samples of skin tissue with pigmentatio petaloides actinica from the shoulder (at two sites for each subject) in two subjects at with a biopsy trepan (diameter: 4 mm). Thereafter, the thus-collected skin biopsy samples were immersed in Dulbecco's modified Eagle's medium (DMEM), and transported to the Cincinnati branch of Biological Science Americas Laboratories while being maintained at about 4 to 10° C. […]
(§4) Thereafter, total RNA was extracted by use of RNeasy micro kit (Qiagen), and cDNA was synthesized through a customary method by means of ThermoScript RT-PCR Systems (Invitrogen, Carlsbad, Calif.). Probes specific to tyrosinase mRNA, SCF (KITLG) mRNA, and endothelin-1 mRNA were obtained from TaqMan® Gene Expression Assays (Applied Biosystems) (Assay IDs: Hs00165976_m1, Hs00241497_m1, and Hs00174961_ml), and real-time quantitative RT-PCR was carried out by means of ABI PRISM 7300 sequence detection system (Applied Biosystems). […] The expression level of each gene in the PFT-treated spot sample was calculated relative to that of the gene in a control spot sample (taken as 1).

endothelin-1 gene [3] = assay: endothelin-1 gene expression in organ-cultured skin tissue of pigmentatio petaloides actinica, RT-PCR; type: cell-based, human; conditions: 10 μM PFT, 72 hours organ culture, epidermis, relative to control spot sample, FIG. 6
From the text: as §3, §4

[4] = test system: three-dimensional cultured skin model (MEL-300A); assay: melanin content of three-dimensional cultured skin model (MEL-300A); type: cell-based, human; conditions: culturing for 14 days, absorbance at 405 nm, relative to control (100%), FIG. 5
Description: A three-dimensional cultured skin model (MEL-300A) was purchased from Kurabo Industries Ltd. Immediately after the product had been obtained, a tissue cup was transferred into a 6-well culture plate (product of Falcon), and cultured overnight in a long-term maintenance medium (EPI-100-NMM-113, product of Kurabo Industries Ltd.) (1 mL), in an atmosphere of […] at 37° C. Subsequently, pifithrin-α (PFT), which is a conventionally known p53 inhibitor, was added, followed by culturing for 14 days. Culturing was carried out by allowing the tissue cup to stand still on a sterilized stainless steel washer (product of Kurabo Industries Ltd.) and by use of a long-term maintenance medium (5 mL). Medium was exchanged every three days. After culturing, skin tissue was removed from the tissue cup with tweezers, and then washed thrice with PBS, once with 5% (v/v) trichloroacetic acid, and once with a mixture of diethyl ether and ethanol (1:3 by volume). Thereafter, the thus-washed skin tissue was incubated at 50° C. for two hours, to thereby dry the tissue. Subsequently, the tissue was dissolved in 2N aqueous sodium hydroxide solution (2N) (200 μL), followed by centrifugation at 15,000 rpm for 15 minutes. Thereafter, the culture supernatant was recovered, and absorbance was measured at 405 nm, to thereby calculate the melanin content in the tissue.

SCF (KITLG) gene [5] = assay: SCF (KITLG) gene expression in organ-cultured skin tissue of pigmentatio petaloides actinica, RT-PCR; type: cell-based, human; conditions: 10 μM PFT, 72 hours organ culture, epidermis, relative to control spot sample, FIG. 6
From the text: as §3, §4

[6] = 5-FU 1 or 10 μg/mL, 48-hour treatment, FIG. 3
[7] = PFT 1 or 10 μM, 24-hours culturing, FIG. 4

Structure (SMILES) | expression of SCF (KITLG) gene (SCF (KITLG) gene [1]; [6]) | expression level of SCF (KITLG) gene (HCT116 cells) | expression of endothelin-1 gene (endothelin-1 gene [2]; [6]) | expression of SCF (KITLG) gene (SCF (KITLG) gene [1]; [7]) | expression level of tyrosinase gene (tyrosinase gene) | expression of endothelin-1 gene (endothelin-1 gene [2]; [7]) | expression of endothelin-1 gene (endothelin-1 gene [3]) | melanin contents [4] | expression level of SCF (KITLG) gene (SCF (KITLG) gene [5])
O=c1[nH]cc(F)c(=O)[nH]1 [5-fluorouracil] | significantly induced | induced | significantly induced | – | – | – | – | – | –
Cc1ccc(C(=O)Cn2c3c(sc2=N)CCCC3)cc1 [pifithrin-α] | – | – | – | significantly decreased | significantly decreased | significantly decreased | tended to be significantly decreased | decreased the melanin contents of the three-dimensional cultured skin model in a dose-dependent manner | significantly decreased
